Test results taken from PMC8222254, “Self-assembly of an anion receptor with metal-dependent kinase inhibition and potent in vitro anti-cancer properties” (Nature Communications, 2021).
Values joined by “and” are separate entries in the source; they are usually repeats but may differ in a detail not shown here. Equal values may be shown once. Read-outs that look alike come from different tables or passages of the source.

Experiments:
Assay in all cases: Chemosensitivity, 96 h continuous exposure, MTT assay;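 on SI (NPI): adult human brain neural progenitor non-cancer cells from an epilepsy surgery patient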;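 on Selectivity Index using the NPI non-cancer cell line: adult human brain neural progenitor non-cancer cells from an epilepsy surgery patient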
Assay type in all cases: cell-based, human
MCF10A non-cancer cells = system: MCF10A non-cancer cells
Outline: (§1)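 Growth inhibition is measured by MTT after cells are dosed for 96 h without washout. The 50% growth-reduction concentration is then interpolated from the curves.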

ARPE-19 non-cancer cells = system: ARPE-19 non-cancer cells
Outline: as §1

PSN1 = system: PSN1;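 on SI (NPI): adult human brain neural progenitor non-cancer cells from an epilepsy surgery patient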;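 on Selectivity Index using the NPI non-cancer cell line: adult human brain neural progenitor non-cancer cells from an epilepsy surgery patient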
Outline: (§2)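 IC50 is the concentration giving 50% growth reduction, derived from dose-response curves of MTT absorbance at 540 nm. Before dosing, lines were plated at 2 × 10^3 cells/well, GBM1 stem-like cells at 3 × 10^3/well, overnight at 37 °C; compound exposure lasted 96 h without interruption, vehicle 0.2% DMSO.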

HT-29 = system: HT-29
Outline: as §1

H460 = system: H460
Outline: as §2

BxPC3 = system: BxPC3
Outline: as §1

MiaPaCa2 = system: MiaPaCa2
Outline: as §1

In the case of `CC(=O)[O-].CC(=O)[O-].CC(=O)[O-].CC(=O)[O-].CC(=O)[O-].CC(=O)[O-].[Zn+2].[Zn+2].[Zn+2].c1ccc(-c2csc(NCCN(CCNc3nc(-c4ccccn4)cs3)CCNc3nc(-c4ccccn4)cs3)n2)nc1.c1ccc(-c2csc(NCCN(CCNc3nc(-c4ccccn4)cs3)CCNc3nc(-c4ccccn4)cs3)n2)nc1` [[L2Zn3]6+], the IC50 (MCF10A non-cancer cells; MCF10A non-cancer, read-out: Mean IC50 values) is reported as 162 µM, the IC50 (MCF10A non-cancer cells; MCF10A, 96 h, MTT, individual run, read-out: IC50 values for each replicate) is reported as 169 µM and 176 µM and 140 µM and the IC50 (MCF10A non-cancer cells; MCF10A, 96 h, MTT, mean of at least 3 independent experiments, read-out: Mean IC50) is reported as 162 µM. The IC50 (MCF10A non-cancer cells; MCF10A, mean of replicates, read-out: Mean IC50) was 162 µM, the “Relative potency (+ anion to no anion), Ratio + anion:no anion” value (from here on “Relative potency … Ratio + anion:no anion”) (MCF10A non-cancer cells; ratio of IC50, MCF10A) was 1 and the IC50 (ARPE-19 non-cancer cells; ARPE-19, 96 h, MTT, individual run, read-out: IC50 values for each replicate) was 154 µM and 160 µM and 144 µM and 171 µM. It also gave an IC50 (ARPE-19 non-cancer cells; ARPE-19, 96 h, MTT, mean of at least 3 independent experiments, read-out: Mean IC50) of 157 µM, an IC50 (ARPE-19 non-cancer cells; ARPE-19, mean of replicates, read-out: Mean IC50) of 157 µM and an IC50 (ARPE-19 non-cancer cells; ARPE-19 non-cancer, read-out: Mean IC50 values) of 157 µM. For the same compound, the “Relative potency … Ratio + anion:no anion” value (ARPE-19 non-cancer cells; ratio of IC50, ARPE-19) was 1, the “Selectivity index (ARPE19)” value (PSN1; IC50 ARPE-19 / IC50 PSN1) was 35.39 and the “Selectivity index (MCF10A)” value (PSN1; IC50 MCF10A / IC50 PSN1) was 36.38. For the same compound, the “Selectivity Index using the NPI non-cancer cell line” value (PSN1; IC50 NP1 / IC50 PSN1) was 1.75, the IC50 (PSN1; PSN1, 96 h, MTT, individual run, read-out: IC50 values for each replicate) was 6.2 µM and 4.88 µM and 2.25 µM and the IC50 (PSN1; PSN1, 96 h, MTT, mean of at least 3 independent experiments, read-out: Mean IC50) was > 1 µM. For the same compound, the IC50 (PSN1; PSN1, mean of replicates, read-out: Mean IC50) was 4.44 µM, the IC50 (PSN1; PSN1, read-out: Mean IC50 values) was 4.44 µM and the “SI (ARPE19)” value (PSN1; mean IC50 ARPE-19 / mean IC50 PSN1) was 35.39. For the same compound, the “SI (MCF10A)” value (PSN1; mean IC50 MCF10A / mean IC50 PSN1) was 36.38, the “SI (NPI)” value (PSN1; mean IC50 NP1 / mean IC50 PSN1) was 1.75 and the “Relative potency … Ratio + anion:no anion” value (PSN1; ratio of IC50, PSN1) was 1. For the same compound, the “Selectivity indices relative to ARPE-19, Ratio + anion:no anion” value (PSN1; ratio of SI (ARPE-19), PSN1) was 1, the “Selectivity indices relative to MCF10A, Ratio + anion:no anion” value (PSN1; ratio of SI (MCF 10A), PSN1) was 1 and the IC50 (HT-29; HT29, mean of replicates, read-out: Mean IC50) was 0.169 µM. The IC50 (HT-29; HT29, read-out: Mean IC50 values) was 0.169 µM, the IC50 (HT-29; HT-29, 96 h, MTT, individual run, read-out: IC50 values for each replicate) was 0.083 µM and 0.161 µM and 0.235 µM and 0.184 µM and 0.182 µM and the IC50 (HT-29; HT-29, 96 h, MTT, mean of at least 3 independent experiments, read-out: Mean IC50) was 0.169 µM. The “Selectivity index (ARPE19)” value (HT-29; IC50 ARPE-19 / IC50 HT29) was 930.47, the “Selectivity index (MCF10A)” value (HT-29; IC50 MCF10A / IC50 HT29) was 956.45 and the “Selectivity Index using the NPI non-cancer cell line” value (HT-29; IC50 NP1 / IC50 HT29) was 46.04. The “SI (ARPE19)” value (HT-29; mean IC50 ARPE-19 / mean IC50 HT-29) was 930.47, the “SI (MCF10A)” value (HT-29; mean IC50 MCF10A / mean IC50 HT-29) was 956.45 and the “SI (NPI)” value (HT-29; mean IC50 NP1 / mean IC50 HT-29) was 46.04. For the same compound, the “Relative potency … Ratio + anion:no anion” value (HT-29; ratio of IC50, HT29) was 1, the “Selectivity indices relative to ARPE-19, Ratio + anion:no anion” value (HT-29; ratio of SI (ARPE-19), HT29) was 1 and the “Selectivity indices relative to MCF10A, Ratio + anion:no anion” value (HT-29; ratio of SI (MCF 10A), HT29) was 1. For the same compound, the IC50 (H460; H460, 96 h, MTT, individual run, read-out: IC50 values for each replicate) was 0.186 µM and 0.273 µM and 0.557 µM and 0.236 µM and 0.441 µM and 0.594 µM and 0.235 µM, the IC50 (H460; H460, 96 h, MTT, mean of at least 3 independent experiments, read-out: Mean IC50) was 0.36 µM and the IC50 (H460; H460, mean of replicates, read-out: Mean IC50) was 0.36 µM. For the same compound, the IC50 (H460; H460, read-out: Mean IC50 values) was 0.36 µM, the “Selectivity index (ARPE19)” value (H460; IC50 ARPE-19 / IC50 H460) was 436.81 and the “Selectivity index (MCF10A)” value (H460; IC50 MCF10A / IC50 H460) was 449.00. For the same compound, the “Selectivity Index using the NPI non-cancer cell line” value (H460; IC50 NP1 / IC50 H460) was 21.61, the “SI (ARPE19)” value (H460; mean IC50 ARPE-19 / mean IC50 H460) was 436.81 and the “SI (MCF10A)” value (H460; mean IC50 MCF10A / mean IC50 H460) was 449.00. The “SI (NPI)” value (H460; mean IC50 NP1 / mean IC50 H460) was 21.61, the “Relative potency … Ratio + anion:no anion” value (H460; ratio of IC50, H460) was 1 and the “Selectivity indices relative to ARPE-19, Ratio + anion:no anion” value (H460; ratio of SI (ARPE-19), H460) was 1. For the same compound, the “Selectivity indices relative to MCF10A, Ratio + anion:no anion” value (H460; ratio of SI (MCF 10A), H460) was 1, the IC50 (BxPC3; BXPC3, mean of replicates, read-out: Mean IC50) was 0.32 µM and the IC50 (BxPC3; BXPC3, read-out: Mean IC50 values) was 0.32 µM. For the same compound, the IC50 (BxPC3; BxPC3, 96 h, MTT, individual run, read-out: IC50 values for each replicate) was 0.228 µM and 0.147 µM and 0.595 µM and 0.533 µM and 0.171 µM and 0.249 µM, the IC50 (BxPC3; BxPC3, 96 h, MTT, mean of at least 3 independent experiments, read-out: Mean IC50) was 0.32 µM and the “Selectivity index (ARPE19)” value (BxPC3; IC50 ARPE-19 / IC50 BXPC3) was 491.41. The “Selectivity index (MCF10A)” value (BxPC3; IC50 MCF10A / IC50 BXPC3) was 505.12, the “Selectivity Index using the NPI non-cancer cell line” value (BxPC3; IC50 NP1 / IC50 BXPC3) was 24.31 and the “SI (ARPE19)” value (BxPC3; mean IC50 ARPE-19 / mean IC50 BxPC3) was 491.41. The “SI (MCF10A)” value (BxPC3; mean IC50 MCF10A / mean IC50 BxPC3) was 505.12, the “SI (NPI)” value (BxPC3; mean IC50 NP1 / mean IC50 BxPC3) was 24.31 and the “Relative potency … Ratio + anion:no anion” value (BxPC3; ratio of IC50, BXPC3) was 1. For the same compound, the “Selectivity indices relative to ARPE-19, Ratio + anion:no anion” value (BxPC3; ratio of SI (ARPE-19), BXPC3) was 1, the “Selectivity indices relative to MCF10A, Ratio + anion:no anion” value (BxPC3; ratio of SI (MCF 10A), BXPC3) was 1 and the “Selectivity index (ARPE19)” value (MiaPaCa2; IC50 ARPE-19 / IC50 MiaPaCa2) was 2.66. The “Selectivity index (MCF10A)” value (MiaPaCa2; IC50 MCF10A / IC50 MiaPaCa2) was 2.74, the “Selectivity Index using the NPI non-cancer cell line” value (MiaPaCa2; IC50 NP1 / IC50 MiaPaCa2) was 0.13 and the IC50 (MiaPaCa2; MiaPaCa2, 96 h, MTT, individual run, read-out: IC50 values for each replicate) was 11.9 µM and 15 µM and 16.3 µM. The IC50 (MiaPaCa2; MiaPaCa2, mean of replicates, read-out: Mean IC50) was 59.1 µM, the IC50 (MiaPaCa2; MiaPaCa2, read-out: Mean IC50 values) was 59.1 µM and the IC50 (MiaPaCa2; MiaPaCa2, single replicate, read-out: IC50 values for each replicate) was 52.7 µM and 64.8 µM and 64.5 µM and 54.3 µM. The “SI (ARPE19)” value (MiaPaCa2; mean IC50 ARPE-19 / mean IC50 MiaPaCa2) was 10.90, the “SI (MCF10A)” value (MiaPaCa2; mean IC50 MCF10A / mean IC50 MiaPaCa2) was 11.21 and the “SI (NPI)” value (MiaPaCa2; mean IC50 NP1 / mean IC50 MiaPaCa2) was 0.54. For the same compound, the “Relative potency … Ratio + anion:no anion” value (MiaPaCa2; ratio of IC50, MiaPaCa2) was 1, the “Selectivity indices relative to ARPE-19, Ratio + anion:no anion” value (MiaPaCa2; ratio of SI (ARPE-19), MiaPaCa2) was 1 and the “Selectivity indices relative to MCF10A, Ratio + anion:no anion” value (MiaPaCa2; ratio of SI (MCF 10A), MiaPaCa2) was 1.
